# Measured values from patent publication US11376231B2, “Compositions of bioactive fulvate fractions and uses thereof” (OMNI BIOCEUTICAL INNOVATIONS, INC., priority 2016, dated 2022).
# Read-outs that look alike come from different tables or passages of the source. Ends that are not written are not given here.
# Experiments:
# chronic wounds = tested on: chronic wounds; parameters: key: N.S. = not statistically significant; conditions: cited from earlier work
# human keratinocytes = experiment: Stimulation of keratinocytes: expression of antimicrobial peptides/polypeptides (Northern blot, ELISA, immunoblot, immunostaining); type: cell-based; conditions: for expression of the antimicrobial peptides/polypeptides hCAP-18, hBD-3, NGAL, and SLPI: human keratinocytes; for mRNA for hBD-3 (induction): not detected in unstimulated cells
# Procedure: SDS-PAGE and immunoblotting were performed with Bio-Rad systems according to instructions given by the manufacturer (Bio-Rad, Hercules, Calif.). For immunoblotting, after the transfer of proteins from the 14% polyacrylamide gels, the polyvinylidene difluoride (PVDF) membranes (Millipore, Bedford, Mass.) were blocked for 1 h with 5% skimmed milk in PBS. For detection of hCAP-18, NGAL, and SLPI, the PVDF membranes were incubated overnight with primary antibodies. The following day, the membranes were washed and incubated for 2 h with alkaline phosphatase-conjugated secondary antibodies (DAKO, Glostrup, Denmark) then washed and visualized by 5'-bromo-chloro-indolyl phosphate (Sigma-Aldrich) and nitro blue tetrazolium (Sigma-Aldrich). Medium from keratinocytes was extracted with MacroPrep CM Support beads (Bio-Rad) overnight at 4° C. The beads were subsequently washed and bound material was eluted with 30% acetic acid. The eluted material was dialyzed in 5% acetic acid and lyophilized before resuspension in sample buffer for acid urea (AU)-PAGE. AU-PAGE and immunoblotting were performed according to instructions given by the manufacturer (Hoeffer, San Francisco, Calif.). After transfer of proteins from the 12.5% acrylamide gels, the PVDF membranes were fixed for 30 min in TBS with 0.05% glutaraldehyde (Sigma-Aldrich), followed by blocking with Superblock Blocking Buffer (Pierce, Rockford, Ill.). For visualization of hBD-3, the PVDF membranes were incubated overnight with primary antibodies. The following day, the membranes were incubated for 2 h with HRP-conjugated secondary antibodies, (Pierce) and visualized by Immun-Star HRP luminal/enhancer and Immun-Star peroxide buffer (Bio-Rad). Cells were grown in serum-free keratinocyte medium from Clonetics (KGM-2 Bullet Kit; San Diego, Calif.) with bovine pituitary extract, transferrin, human epidermal growth factor (EGF), hydrocortisone, gentamicin, amphotericin B, and epinephrine, but without insulin. Cells were stimulated beginning 24 h after complete confluence was reached. Cells and medium was harvested 0, 3, 6, 12, 24, and 48 h after stimulation with IGF-I (100 ng/mL), TGF-α (50 ng/mL), TGF-β1 (10 ng/mL), hFGF (100 ng/mL), IGF-I/TGF-α, IL-1β (20 ng/mL), IL-6 (100 ng/mL), EGF (100 ng/mL), and INF-α (20 ng/mL). […] The RNA was transferred to a Hybond-N membrane (Amersham Pharmacia Biotech, Little Chalfont, U.K.) by capillary blotting and was fixed by UV irradiation. The filters were pre-hybridized for a minimum of 30 min at 42° C. in 10 mL of ULTRAhyb (Ambion, Austin, Tex.) and hybridized overnight at 42° C. after the addition of an additional 5 mL of ULTRAhyb containing the P-labeled probe. The membranes were washed twice for 5 min each time at 42° C. in 2×SSC (1×SSC=150 mM NaCl/15 mM sodium citrate, pH 7.0)/0.1% SDS, followed by twice for 15 min each time in 2×SSC/0.1% SDS, once for 15 min in 0.2×SSC/0.1% SDS, and once for 15 min in 0.1×SSC/0.1% SDS at 42° C. The blot was developed and quantified by a phosphorimager (Fuji Imager Analyzer BAS-2500, Image Reader version 1.4E, image Gauge version 3.01 software; Fuji, Stockholm, Sweden). The sizes of the mRNAs were determined by reference to 18S and 285 rRNA, which were visualized by ethidium bromide staining. The membranes were stripped by boiling in 0.1% SDS before re-hybridization. The probes used for hybridization were cDNA fragments radiolabeled with [α-P]dCTP using the Random Primers DNA Labeling System (Life Technologies). The probes NGAL, hCAP-18, hBD-2, and β-actin have previously been described. The probes for SLPI, hBD-1, and hBD-3 were amplified from cDNA from keratinocytes with the following primers: SLPI, [NT] II) NO: 1), and [NT] ID NO: 2); hBD-1, [NT] ID NO: 3), and [NT] ID NO: 4); and hBD-3, [NT] ID NO: 5), and [NT] ID NO: 6). The probe for hBD-4 was amplified from genomic DNA using the following primers: [NT] ID NO: 7) and [NT] II) NO: 8). PCR-amplified probes were cloned into plasmids and verified by DNA sequencing. […]
# CBA Epidermal Culture = experiment: Tissue repair in human epidermal cell culture with 4-mm defect (bFGF, M-007); type: cell-based
# Procedure: A 4-mm mucosal defect was surgically made in the CBA Epidermal Culture. The formulation Sol. of bFGF, M-007, and control saline was injected along the edge of the wound defect immediately after scratch. The control group received only phosphate-buffered saline vehicle.
# By day 5, FGFR1-positive cells were seen below the stratum corneum, even in the control group. […] Each sample was repeated in duplicate, thus FIG. 2 represents the average of each sample. P1-2 are control plates 1 and 2 and are epidermal cell culture with no external treatment. P3-4 is epidermal cell culture treated with phosphate buffered saline only. P5-6 is epidermal cell culture treated with bFGF. P7-8 is epidermal cell culture treated with bFGF sol. No. 00376. […] No. 00321A. […] No. 0032113. […] No. 00321A @ 70/30 ratio. […] No. 00321A @ 30/70 ratio. […] No. 00321A 70/30 ratio. P21-22 is epidermal cell culture treated with bFGF sol. […] No. 00321A @50/50 ratio. P23-24 is epidermal cell culture treated with bFGF sol. […] No. 00321A @30/70 ratio.
# skin wounds = experiment: Screen of tigerinin-based peptides for wound-healing ability
# Text: Two antimicrobial peptides (tigerinin-RC1: […] (SEQ ID NO: 9); tigerinin-RC2: […] (SEQ ID NO: 10)) have been previously identified from the skin secretions of Fejervarya cancrivora. […] Here, several peptides based on tigerinins are synthesized to screen candidates containing potential wound-healing ability.
substance,measurement,setting,value
"EGF: epidermal growth factor (NSDSECPLSHDGYCLHDGVCMYIEALDKYACNCVVGYIGERCQYRDLKWWELR; UniProt P01133 971-1023, looked up)",Results,"chronic wounds; venous (44), 10 μg/mL twice per day, Falanga et al.",N.S.
GM-CSF: granulocyte-macrophage colony-stimulating factor,Results,"chronic wounds; venous + arterial (25), 400 μg injected once around the wound, da Costa et al.",N.S.
HGH: human growth hormone,Results,"chronic wounds; venous (37), 1 IU/cm^2 per week, Rasmussen et al.",N.S.
IGF-I: insulin growth factor-1,expression of hBD-1 relative to the housekeeping gene β-actin,human keratinocytes; 24 h,3 fold
same,expression of hBD-1 relative to the housekeeping gene β-actin,human keratinocytes; 48 h,7 fold
same,"expression of the antimicrobial peptides/polypeptides hCAP-18, hBD-3, NGAL, and SLPI",human keratinocytes,induce or enhance
same,hCAP-18 at the protein level (ELISA) and the mRNA level,human keratinocytes; keratinocytes,up-regulated
same,mRNA for hBD-3 (induction),human keratinocytes; keratinocytes,did not induce
IL-1B: interleukin-1B,Results,"chronic wounds; pressure (25), 0.01, 0.1, and 1 μg/cm^2 daily, Robson et al.",N.S.
TGF-α: a transforming growth factor,"expression of the antimicrobial peptides/polypeptides hCAP-18, hBD-3, NGAL, and SLPI",human keratinocytes,induce or enhance
same,mRNA for hBD-3 (induction),human keratinocytes; keratinocytes,significantly induced
same,hBD-3 in the medium by immunoblot,"human keratinocytes; medium from stimulated keratinocytes, not in unstimulated cells",detected
bFGF: basic fibroblast growth factor,collagen maturation (histologic analysis),CBA Epidermal Culture,relatively faster
same,granular tissue formation and re-epithelialization,CBA Epidermal Culture,significantly accelerated
same,number and intensity of FGFR1-positive cells versus control group,CBA Epidermal Culture; day 5,greater than in the control group
same,Results,"chronic wounds; diabetic (17), 0.25 to 0.75 μg/cm^2 daily, Richard et al.",N.S.
same,Results,"chronic wounds; pressure (50), 1, 5, and 10 μg/cm^2, Robson et al.",N.S.
"c [WCKPKPKPRCH-NH2] (SEQ ID NO: 11) (not fully specified (bridges); also: cyclic, ring type and places not given here; listed as Fejervarya cancrivora) [M-007 fulvate isolated peptide, tigerinin-based synthesized small peptide]",wound-healing ability,skin wounds,potent healer of skin wounds
